Measured values from ChEMBL document CHEMBL1777762, “Design and synthesis of protein kinase Cα activators based on 'out of pocket' interactions” (Bioorg Med Chem Lett, 2011).
Calls of active or inactive are those of the source. The rule behind the calls is not given here.

Legend:
[1] = biological target: T1, Protein kinase C alpha type (Homo sapiens, UniProt P17252); test: Displacement of [3H]PDBu from human recombinant PKCalpha after 20 mins by liquid scintillation counting
[2] = biological target: T1, Protein kinase C alpha type; test: Activation of human recombinant PKCalpha assessed as rate of phosphate incorporation into PepTag C1 peptide at 1 to 100 uM after 40 mins by agarose gel electrophoresis analysis
[3] = biological target: T1, Protein kinase C alpha type; test: Activation of human recombinant PKCalpha assessed as rate of phosphate incorporation into PepTag C1 peptide at 100 uM after 40 mins by agarose gel electrophoresis analysis relative to control
[4] = biological target: T1, Protein kinase C alpha type; test: Activation of human recombinant PKCalpha assessed as rate of phosphate incorporation into PepTag C1 peptide at 10 uM after 40 mins by agarose gel electrophoresis analysis relative to control
[5] = biological target: T1, Protein kinase C alpha type; test: Activation of human recombinant PKCalpha assessed as rate of phosphate incorporation into PepTag C1 peptide at 1 uM after 40 mins by agarose gel electrophoresis analysis relative to control
[6] = biological target: T1, Protein kinase C alpha type; test: Activation of human recombinant PKCalpha assessed as rate of phosphate incorporation into PepTag C1 peptide at 0.1 uM after 40 mins by agarose gel electrophoresis analysis relative to control
[7] = biological target: T1, Protein kinase C alpha type; test: Activation of human recombinant PKCalpha assessed as rate of phosphate incorporation into PepTag C1 peptide at 0.01 uM after 40 mins by agarose gel electrophoresis analysis relative to control
[8] = biological target: T1, Protein kinase C alpha type; test: Activation of human recombinant PKCalpha assessed as rate of phosphate incorporation into PepTag C1 peptide at 0.001 uM after 40 mins by agarose gel electrophoresis analysis relative to control
[9] = biological target: T1, Protein kinase C alpha type; test: Activation of human recombinant PKCalpha assessed as rate of phosphate incorporation into PepTag C1 peptide at 0.0001 uM after 40 mins by agarose gel electrophoresis analysis relative to control

CCCCCCCCCCCCOc1cccc2c1C(=O)O[C@]2(CO)COC(=O)CCCCCCCCCCC
Ki [1]: > 3000 nM

CCCCCCCCCCCCO[C@H]1[C@@H](OCc2ccccc2)[C@H](OCc2ccccc2)[C@@H](OCC#Cc2cccc3c2C(=O)O[C@]3(CO)COC(=O)C(C(C)(C)C)C(C)(C)C)[C@H](OCc2ccccc2)[C@H]1OCc1ccccc1
Ki [1]: > 20000 nM | Activity [2]: Active

CCCCCCCCCCCCO[C@@H]1[C@H](OC)[C@@H](OC)[C@H](OCC#Cc2cccc3c2C(=O)O[C@]3(CO)COC(=O)C(C(C)(C)C)C(C)(C)C)[C@@H](OC)[C@@H]1OC
Ki [1]: 600 nM | Activity [2]: Active

CCCCCCCCCCCCO[C@H]1[C@@H](OC(C)=O)[C@H](OC(C)=O)[C@@H](OCC#Cc2cccc3c2C(=O)O[C@]3(CO)COC(=O)C(C(C)(C)C)C(C)(C)C)[C@H](OC(C)=O)[C@H]1OC(C)=O
Ki [1]: 2340 nM | Activity [2]: Active

CCCCCCCCCCCCO[C@H]1[C@@H](OCc2ccc(C(C)C)cc2)[C@H](OCc2ccc(C(C)C)cc2)[C@@H](OCC#Cc2cccc3c2C(=O)O[C@]3(CO)COC(=O)C(C(C)(C)C)C(C)(C)C)[C@H](OCc2ccc(C(C)C)cc2)[C@H]1OCc1ccc(C(C)C)cc1
Ki [1]: > 20000 nM | Activity [2]: Active

CCCCCCCCCCCCOc1cccc2c1C(=O)O[C@]2(CO)COC(=O)C(C(C)(C)C)C(C)(C)C
Ki [1]: 43 nM

CCCCCCCCCCCCCC(=O)O[C@@H]1[C@@H](C)[C@@]2(O)[C@@H](C=C(CO)C[C@]3(O)C(=O)C(C)=C[C@@H]23)[C@@H]2C(C)(C)[C@]12OC(C)=O
Activity [3]: 108% | Activity [4]: 100% | Activity [5]: 85.3% | Activity [6]: 80.6% | Activity [7]: 62.4% | Activity [8]: 11.1% | Activity [9]: 0.58%

CCCCCCCCCCCCO[C@@H]1[C@H](OCC=C(C)C)[C@@H](OC/C=C/C(C)C)[C@H](OCC#Cc2cccc3c2C(=O)O[C@]3(CO)COC(=O)C(C(C)(C)C)C(C)(C)C)[C@@H](OCC=C(C)C)[C@@H]1OCC=C(C)C
Ki [1]: > 20000 nM | Activity [2]: Active

CCCCCCCCCCCCO[C@H]1[C@@H](OCc2ccc(F)cc2)[C@H](OCc2ccc(F)cc2)[C@@H](OCC#Cc2cccc3c2C(=O)O[C@]3(CO)COC(=O)C(C(C)(C)C)C(C)(C)C)[C@H](OCc2ccc(F)cc2)[C@H]1OCc1ccc(F)cc1
Ki [1]: > 20000 nM | Activity [2]: Active
